One experiment has as its system Human LDL. The experiment in a line: Antioxidant effect: inhibition of copper-induced oxidation of human LDL (fluorescence). It is filed as biochemical. The following applies: human LDL 120 μg/ml + CuCl2, 37° C., fluorescence difference between 2 h and 24 h readings; from three concentrations. The procedure:
Human LDLs placed in aqueous solution in the presence of cupric ions, become spontaneously oxidized on their protein component, apolipoprotein-B. This oxidation makes the particle fluorescent, which is exploited to measure a pharmacological effect.
The reactions and measurements are performed in black 96-well plates. 10 μl of a solution of the test product dissolved in dimethyl sulfoxide are first mixed with 170 μl of a solution of human LDL at a concentration of 120 μg/ml and 20 μl of 100 μM CuCl2. After stirring, the mixture is incubated for 2 hours at 37° C., and a first fluorescence reading is taken (excitation at 360 nm, reading at 460 nm). The mixture is then incubated for a further 22 hours, to take a second reading under the same conditions. The difference is proportionately smaller the greater the anti-oxidant power of the test product. Probucol is used as reference product at a concentration of 10 μM.
The concentrations that inhibit 50% (IC50) of the oxidation are prepared from three concentrations of the test product. They are given in Table I below for some of the compounds given as examples below.

The next experiment has as its system fatty Zucker rats. The experiment in a line: Hypotriglyceridaemiant activity in fatty Zucker rats. Type of experiment: in vivo, rat. The following applies: 9-week-old male Zucker rats, 300 mg/kg/day p.o. for eight days, plasma after fasting four hours. As for the experimental part: The compound of Example 2 was tested on fatty Zucker rats (Zucker L. M. et al., 1961, Fatty a new mutation in the rat, J. Hered., 52: 275278). This animal is hyperphagic, obese and hyperinsulinaemic. It develops resistance to insulin, it is hyperlipidaemic, and has a large hypertriglyceridaemia. 9-week-old male Zucker rats were treated for eight days with this compound at a dose of 300 mg/kg/day p.o. After fasting for four hours, a blood sample is taken to recover the plasma. Under these conditions, the compound of Example 2 induces a large reduction in triglycerides, of 55% (p<0.01), and the insulinaemia is down by 59% (p<0.05).

As a reminder, the IC50 is the concentration that gives 50% inhibition. On to `COc1ccc(Nc2ccc(C(=O)O)cc2)cc1` [Example 2, 4-[(4-Methoxyphenyl)amino]benzoic acid], for which, in the experiment with Human LDL, the concentration for half-maximal inhibition (IC50) is 10.6 µM. Further, the reduction in triglycerides in the experiment with fatty Zucker rats (p<0.01) turned out to be 55%. Moreover, in the experiment with fatty Zucker rats (p<0.05), the “insulinaemia down by” value amounted to 59%.

As for `COc1ccc(Nc2ccc(CO)cc2)cc1` [Example 8, {4-[(4-Methoxyphenyl)amino]phenyl}methanol], in the experiment on Human LDL, the IC50 came to 5.8 µM. Consider `COc1ccc(Nc2ccc(CC(=O)O)cc2)cc1` [Example 17], for which the IC50 in the experiment with Human LDL came out at 11.1 µM. As for `O=C(O)c1ccc(Nc2ccc([N+](=O)[O-])cc2)cc1` [Example 13], the IC50 with Human LDL worked out at 9.7 µM.

For the compound `COc1ccc(Nc2ccc(C(N)=O)cc2)cc1` [Example 42], in the experiment with Human LDL, the half-maximal inhibitory concentration (IC50) was determined as 18.6 µM. With `COc1ccc(Nc2ccc(C#N)cc2)cc1` [Example 6, 4-[(4-Methoxyphenyl)amino]benzonitrile], the half-maximal inhibitory concentration (IC50) with Human LDL stood at 8.5 µM.
